Laboratory results reported in ChEMBL document CHEMBL3414500, “New polycyclic dual inhibitors of the wild type and the V27A mutant M2 channel of the influenza A virus with unexpected binding mode” (Eur J Med Chem, 2015).
The source made the active and inactive calls. The calls are words filed in the database; no cut-off is given here.

Tests used:
[1] = biological target: Matrix protein 2 (Influenza A virus) (UniProt P06821); type: cell membranes; conditions: Influenza A virus (A/udorn/1972(H3N2)); 100 uM
Matrix protein 2 (Influenza A virus), sequence (P06821 whole entry): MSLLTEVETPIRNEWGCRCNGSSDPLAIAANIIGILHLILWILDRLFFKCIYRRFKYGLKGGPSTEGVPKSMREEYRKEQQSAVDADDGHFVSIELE

[2] = Cytotoxicity against MDCK cells assessed as alternations in cell morphology after 72 hrs; type: cell-based, Canis lupus familiaris; conditions: dog
[3] = Antiviral activity against Influenza A virus (A/HK/7/87(H3N2)) infected in MDCK cells assessed as cell viability after 72 hrs by MTS assay; type: functional, cell-based, Influenza A virus (A/Hong Kong/7/1987(H3N2))
[4] = Cytotoxicity against MDCK cells assessed as cell viability after 72 hrs by MTS assay; type: cell-based, Canis lupus familiaris; conditions: dog
Influenza A virus [5] = experiment: Antiviral activity against Influenza A virus (A/PR/8/34(H1N1)) infected in MDCK cells assessed as cell viability after 72 hrs by MTS assay; type: functional, organism-based; conditions: A/Puerto Rico/8/1934(H1N1)
[6] = Antiviral activity against Influenza A virus (A/HK/7/87(H3N2)) infected in MDCK cells assessed as 2-log10 reduction in virus yield after 24 hrs by RT-qPCR analysis; type: functional, Influenza A virus (A/Hong Kong/7/1987(H3N2))
Influenza B virus = experiment: Antiviral activity against Influenza B virus (B/HK/5/72) infected in MDCK cells assessed as reduction of virus-induced cytopathic effect after 72 hrs by microscopic analysis; type: functional, cell-based; conditions: B/Hong Kong/05/1972
[7] = Antiviral activity against Influenza A virus (A/HK/7/87(H3N2)) infected in MDCK cells assessed as reduction of virus-induced cytopathic effect after 72 hrs by microscopic analysis; type: functional, cell-based, Influenza A virus (A/Hong Kong/7/1987(H3N2))
Influenza A virus [8] = experiment: Antiviral activity against Influenza A virus (A/PR/8/34(H1N1)) infected in MDCK cells assessed as reduction of virus-induced cytopathic effect after 72 hrs by microscopic analysis; type: functional, organism-based; conditions: A/Puerto Rico/8/1934(H1N1)
Matrix protein 2 = Matrix protein 2 (Influenza A virus, UniProt P06821); type: cell membranes, Influenza A virus (A/udorn/1972(H3N2))
Matrix protein 2, sequence (P06821 whole entry): as above

[9] = Antiviral activity against Influenza A virus (A/HK/7/87(H3N2)) infected in MDCK cells assessed as virus plaque reduction preincubated for 1 hr followed by compound wash out and incubated for 72 hrs by crystal violet staining; type: functional, cell-based, Influenza A virus (A/Hong Kong/7/1987(H3N2))

| SMILES | inhibition [1] [%] | MCC at 72 h [2] [µM] | EC50 [3] [µM] | CC50 at 72 h [4] [µM] | EC50 (Influenza A virus [5]) [µM] | EC99 [6] [µM] | Activity (Influenza B virus) | EC50 [7] [µM] | EC50 (Influenza A virus [8]) [µM] | IC50 (Matrix protein 2) [µM] | EC50 [9] [µM] |
| --- | --- | --- | --- | --- | --- | --- | --- | --- | --- | --- | --- |
| N=C(N)N1CC2C3CCC(C4CCC43)C2C1 (stereo not given) | 94.5 |  |  |  |  |  |  |  |  |  |  |
| N=C(N)N1C[C@@H]2[C@H](C1)[C@H]1C3CC4[C@H]([C@H]41)[C@@H]32 | 99 | > 100 | > 100 | 50 | > 100 | > 50 | inactive | > 100 | > 100 | 0.8 | > 100 |
| C1=C[C@H]2[C@H]3[C@H]4[C@@H]1[C@@H]1[C@H]2[C@@H]2[C@H]3[C@@H]3CNC[C@@H]3[C@H]4[C@H]12 | 96.4 | 20 | > 100 | 11 | > 100 | 3.45 | inactive | > 100 | > 100 | 2.6 | 0.37 |
| C1C[C@H]2[C@H]3[C@H]4[C@@H]1[C@@H]1[C@H]2[C@@H]2[C@H]3[C@@H]3CNC[C@@H]3[C@H]4[C@H]12 | 98.1 | 4 | > 100 | 3.7 | > 100 | > 2 | inactive | > 100 | > 100 | 2.1 | 0.54 |
| N=C(N)N1C[C@@H]2[C@H](C1)[C@@H]1[C@@H]3[C@H]4C=C[C@H]5[C@@H]3[C@H]2[C@H]2[C@@H]5[C@@H]4[C@@H]12 | 89.6 | 2 | > 100 | 1.2 | > 100 | > 2 | inactive | > 100 | > 100 | 6.5 | > 5 |
| C1C2[C@@H]3[C@H]2[C@@H]2C1[C@H]3[C@@H]1CNC[C@@H]12 | 93.7 | > 100 | > 100 | > 100 | > 100 | 28 | inactive | > 100 | > 100 | 3.3 | 6.7 |
| N=C(N)N1C[C@@H]2[C@H](C1)[C@@H]1[C@@H]3[C@H]4CC[C@H]5[C@@H]3[C@H]2[C@H]2[C@@H]5[C@@H]4[C@@H]12 | 90.6 | 7 | > 100 | 4.6 | > 100 | > 2 | inactive | > 100 | > 100 | 3.7 | > 5 |
| CC(N)C12CC3CC(CC(C3)C1)C2 (stereo not given) [RIMANTADINE] |  |  | 0.15 |  | 5.1 | 1.77 |  | 0.81 | 7.6 |  | 0.02 |
| NC12CC3CC(CC(C3)C1)C2 [AMANTADINE] |  |  | 1.4 |  | 34 | 0.72 |  | 1.4 | 30 |  | 0.14 |
| Brc1ccc(CNC23CC4CC(CC(C4)C2)C3)s1 | 77 |  |  |  |  |  |  |  |  |  |  |
